Measured values published in patent publication US4803167A, “Monoclonal antidigoxtin antibodies” (The General Hospital Corporation, priority 1982, dated 1989).
Where two headings read alike, the source gives them in different places.

Legend:
Test in all cases: Specificity determination, inhibition of [3H]digoxin binding in dextran charcoal RIA
[1] = test system: monoclonal anti-digoxin antibody Dig 25-54; parameters: species or system mouse (A/J); details: for amount of inhibitor required to give 50% inhibition relative to the amount of digoxin which gave 50% inhibition: inhibition of antibody binding to [3H]digoxin
Procedure: (§1) The specificity of each antidigoxin antibody for related cardiac glycosides was assessed by the inhibition of binding of antibody in the dextran charcoal radioimmunoassay Smith (1972), supra. To a constant amount of H^3 -digoxin (1.5 ng) in 1 ml of buffer is added different amounts ([…]) of various cardiac glycosides: digoxin, digitoxin, digitoxigenin, digoxigenin, acetyl-strophanthidin, ouabain, deslanoside, and endogenous steroids such as chloresterol, cortisol, androsterone, 17-[beta]-estradiol, progesterone, and testosterone. After 5 minutes, a constant amount of anti-digoxin antibody was added and the assay was continued as described above. Comparison among different antidigoxin antibodies with respect to their fine specificity was made by determining the amount of cardiac glycoside required to achieve 50% inhibition relative to that required for cold digoxin.
(§2) Specificity of monoclonal antibody binding site for related cardiac glycosides was examined by means of hapten inhibition experiments in which the binding of monoclonal antibody to H^3 -digoxin was inhibited by cold digoxin and related cardiac glycosides.

[2] = test system: monoclonal anti-digoxin antibody Dig 26-10; parameters: species or system mouse (A/J); details: for amount of inhibitor required to give 50% inhibition relative to the amount of digoxin which gave 50% inhibition: inhibition of antibody binding to [3H]digoxin
Procedure: as §1, §2

[3] = test system: monoclonal anti-digoxin antibody Dig 26-20; parameters: species or system mouse (A/J); details: for amount of inhibitor required to give 50% inhibition relative to the amount of digoxin which gave 50% inhibition: inhibition of antibody binding to [3H]digoxin
Procedure: as §1, §2

[4] = test system: monoclonal anti-digoxin antibody Dig 26-30; parameters: species or system mouse (A/J); details: for amount of inhibitor required to give 50% inhibition relative to the amount of digoxin which gave 50% inhibition: inhibition of antibody binding to [3H]digoxin
Procedure: as §1, §2

[5] = test system: monoclonal anti-digoxin antibody Dig 26-40; parameters: species or system mouse (A/J); details: for amount of inhibitor required to give 50% inhibition relative to the amount of digoxin which gave 50% inhibition: inhibition of antibody binding to [3H]digoxin
Procedure: as §1, §2

[6] = test system: monoclonal anti-digoxin antibody Dig 35-20; parameters: species or system mouse (A/J); details: for amount of inhibitor required to give 50% inhibition relative to the amount of digoxin which gave 50% inhibition: inhibition of antibody binding to [3H]digoxin
Procedure: as §1, §2

[7] = test system: Sheep Anti-Dig Serum (heterogeneous anti-digoxin antiserum); details: inhibition of antibody binding to [3H]digoxin
Procedure: Antisera specific for digoxin was prepared in sheep as previously described by Curd et al, Proc. Nat. Acad. Sci. 65: 2401 (1971). High affinity antidigoxin sheep antisera was used in the clinical RIA for digoxin (described below).
as §1, §2

[8] = highest concentration tested 10^-4 M

## 4-androstedione
[1]
  inhibition of binding of [3H]digoxin by endogenous steroids: No significant inhibition
[2]
  inhibition of binding of [3H]digoxin by endogenous steroids: No significant inhibition
[3]
  inhibition of binding of [3H]digoxin by endogenous steroids: No significant inhibition
[4]
  inhibition of binding of [3H]digoxin by endogenous steroids: No significant inhibition
[5]
  inhibition of binding of [3H]digoxin by endogenous steroids: No significant inhibition
[6]
  inhibition of binding of [3H]digoxin by endogenous steroids: No significant inhibition

## C[C@H]1O[C@@H](O[C@H]2[C@@H](O)C[C@H](O[C@H]3[C@@H](O)C[C@H](O[C@H]4CC[C@@]5(C)[C@H](CC[C@@H]6[C@@H]5CC[C@]5(C)[C@@H](C7=CC(=O)OC7)CC[C@]65O)C4)O[C@@H]3C)O[C@@H]2C)C[C@H](O)[C@@H]1O [Digitoxin]
[1]
  amount of inhibitor required to give 50% inhibition relative to the amount of digoxin which gave 50% inhibition: 1.8
[2]
  amount of inhibitor required to give 50% inhibition relative to the amount of digoxin which gave 50% inhibition: 1.3
[3]
  amount of inhibitor required to give 50% inhibition relative to the amount of digoxin which gave 50% inhibition: 1.0
[4]
  amount of inhibitor required to give 50% inhibition relative to the amount of digoxin which gave 50% inhibition: 2.6
[5]
  amount of inhibitor required to give 50% inhibition relative to the amount of digoxin which gave 50% inhibition: 1.4
[6]
  amount of inhibitor required to give 50% inhibition relative to the amount of digoxin which gave 50% inhibition: 4.6
[7]
  amount of inhibitor required to give 50% inhibition relative to the amount of digoxin which gave 50% inhibition: 152.0
[7]; listed as digitoxin
  amount of inhibitor required to give 50% inhibition relative to the amount of digoxin which gave 50% inhibition: 150

## CC(=O)O[C@H]1CC[C@]2(C=O)[C@H]3CC[C@]4(C)[C@@H](C5=CC(=O)OC5)CC[C@]4(O)[C@@H]3CC[C@]2(O)C1 [Acetylstrophanthidin]
[1]
  amount of inhibitor required to give 50% inhibition relative to the amount of digoxin which gave 50% inhibition: > 100
[2]
  amount of inhibitor required to give 50% inhibition relative to the amount of digoxin which gave 50% inhibition: 1.50
[3]
  amount of inhibitor required to give 50% inhibition relative to the amount of digoxin which gave 50% inhibition: 0.70
[4]
  amount of inhibitor required to give 50% inhibition relative to the amount of digoxin which gave 50% inhibition: 0.85
[5]
  amount of inhibitor required to give 50% inhibition relative to the amount of digoxin which gave 50% inhibition: 2.30
[6]
  amount of inhibitor required to give 50% inhibition relative to the amount of digoxin which gave 50% inhibition: 110

## C[C@]12CC[C@H]3[C@@H](CCC4=CC(=O)CC[C@@]43C)[C@@H]1CC[C@@H]2O [testosterone]
[1]
  inhibition of binding of [3H]digoxin by endogenous steroids: No significant inhibition
[2]
  inhibition of binding of [3H]digoxin by endogenous steroids: No significant inhibition
[3]
  inhibition of binding of [3H]digoxin by endogenous steroids: No significant inhibition
[4]
  inhibition of binding of [3H]digoxin by endogenous steroids: No significant inhibition
[5]
  inhibition of binding of [3H]digoxin by endogenous steroids: No significant inhibition
[6]
  inhibition of binding of [3H]digoxin by endogenous steroids: No significant inhibition

## C[C@H]1O[C@@H](O[C@H]2CC[C@@]3(C)[C@H](CC[C@@H]4[C@@H]3C[C@@H](O)[C@]3(C)[C@@H](C5=CC(=O)OC5)CC[C@]43O)C2)C[C@H](O)[C@@H]1O[C@H]1C[C@H](O)[C@H](O[C@H]2C[C@H](O)[C@H](O[C@@H]3O[C@H](CO)[C@@H](O)[C@H](O)[C@H]3O)[C@@H](C)O2)[C@@H](C)O1 [Deslanoside]
[1]
  amount of inhibitor required to give 50% inhibition relative to the amount of digoxin which gave 50% inhibition: 4.3
[2]
  amount of inhibitor required to give 50% inhibition relative to the amount of digoxin which gave 50% inhibition: 2.6
[3]
  amount of inhibitor required to give 50% inhibition relative to the amount of digoxin which gave 50% inhibition: 1.5
[4]
  amount of inhibitor required to give 50% inhibition relative to the amount of digoxin which gave 50% inhibition: 1.6
[5]
  amount of inhibitor required to give 50% inhibition relative to the amount of digoxin which gave 50% inhibition: 2.0
[6]
  amount of inhibitor required to give 50% inhibition relative to the amount of digoxin which gave 50% inhibition: 3.7

## C[C@]12CC[C@H](O)C[C@H]1CC[C@@H]1[C@@H]2CC[C@]2(C)[C@@H](C3=CC(=O)OC3)CC[C@]12O [Digitoxigenin]
[1]
  amount of inhibitor required to give 50% inhibition relative to the amount of digoxin which gave 50% inhibition: 54.0
[2]
  amount of inhibitor required to give 50% inhibition relative to the amount of digoxin which gave 50% inhibition: 3.7
[3]
  amount of inhibitor required to give 50% inhibition relative to the amount of digoxin which gave 50% inhibition: 2.2
[4]
  amount of inhibitor required to give 50% inhibition relative to the amount of digoxin which gave 50% inhibition: 3.6
[5]
  amount of inhibitor required to give 50% inhibition relative to the amount of digoxin which gave 50% inhibition: 4.0
[6]
  amount of inhibitor required to give 50% inhibition relative to the amount of digoxin which gave 50% inhibition: 2.7
[7]
  amount of inhibitor required to give 50% inhibition relative to the amount of digoxin which gave 50% inhibition: 860.0

## C[C@]12CC[C@@H]3c4ccc(O)cc4CC[C@H]3[C@@H]1CC[C@@H]2O [17-[beta]-estradiol]
[1]; [8]
  inhibition of binding of [3H]digoxin by endogenous steroids: No significant inhibition
[2]; [8]
  inhibition of binding of [3H]digoxin by endogenous steroids: No significant inhibition
[3]; [8]
  inhibition of binding of [3H]digoxin by endogenous steroids: No significant inhibition
[4]; [8]
  inhibition of binding of [3H]digoxin by endogenous steroids: No significant inhibition
[5]; [8]
  inhibition of binding of [3H]digoxin by endogenous steroids: No significant inhibition
[6]; [8]
  inhibition of binding of [3H]digoxin by endogenous steroids: No significant inhibition

## CC(=O)[C@H]1CC[C@H]2[C@@H]3CCC4=CC(=O)CC[C@]4(C)[C@H]3CC[C@]12C [progesterone]
[1]; [8]
  inhibition of binding of [3H]digoxin by endogenous steroids: No significant inhibition
[2]; [8]
  inhibition of binding of [3H]digoxin by endogenous steroids: No significant inhibition
[3]; [8]
  inhibition of binding of [3H]digoxin by endogenous steroids: No significant inhibition
[4]; [8]
  inhibition of binding of [3H]digoxin by endogenous steroids: No significant inhibition
[5]; [8]
  inhibition of binding of [3H]digoxin by endogenous steroids: No significant inhibition
[6]; [8]
  inhibition of binding of [3H]digoxin by endogenous steroids: No significant inhibition

## CC(C)CCC[C@@H](C)[C@H]1CC[C@H]2[C@@H]3CC=C4C[C@@H](O)CC[C@]4(C)[C@H]3CC[C@]12C [cholesterol]
[1]; [8]
  inhibition of binding of [3H]digoxin by endogenous steroids: No significant inhibition
[2]; [8]
  inhibition of binding of [3H]digoxin by endogenous steroids: No significant inhibition
[3]; [8]
  inhibition of binding of [3H]digoxin by endogenous steroids: No significant inhibition
[4]; [8]
  inhibition of binding of [3H]digoxin by endogenous steroids: No significant inhibition
[5]; [8]
  inhibition of binding of [3H]digoxin by endogenous steroids: No significant inhibition
[6]; [8]
  inhibition of binding of [3H]digoxin by endogenous steroids: No significant inhibition

## C[C@]12CCC(=O)C=C1CC[C@@H]1[C@@H]2[C@@H](O)C[C@@]2(C)[C@H]1CC[C@]2(O)C(=O)CO [cortisol]
[1]; [8]
  inhibition of binding of [3H]digoxin by endogenous steroids: No significant inhibition
[2]; [8]
  inhibition of binding of [3H]digoxin by endogenous steroids: No significant inhibition
[3]; [8]
  inhibition of binding of [3H]digoxin by endogenous steroids: No significant inhibition
[4]; [8]
  inhibition of binding of [3H]digoxin by endogenous steroids: No significant inhibition
[5]; [8]
  inhibition of binding of [3H]digoxin by endogenous steroids: No significant inhibition
[6]; [8]
  inhibition of binding of [3H]digoxin by endogenous steroids: No significant inhibition

## C[C@@H]1O[C@@H](O[C@H]2C[C@@H](O)[C@]3(CO)[C@H]4[C@H](O)C[C@]5(C)[C@@H](C6=CC(=O)OC6)CC[C@]5(O)[C@@H]4CC[C@]3(O)C2)[C@H](O)[C@H](O)[C@H]1O [Ouabain]
[1]
  amount of inhibitor required to give 50% inhibition relative to the amount of digoxin which gave 50% inhibition: > 100
[2]
  amount of inhibitor required to give 50% inhibition relative to the amount of digoxin which gave 50% inhibition: 66
[3]
  amount of inhibitor required to give 50% inhibition relative to the amount of digoxin which gave 50% inhibition: 53
[4]
  amount of inhibitor required to give 50% inhibition relative to the amount of digoxin which gave 50% inhibition: 84
[5]
  amount of inhibitor required to give 50% inhibition relative to the amount of digoxin which gave 50% inhibition: 78
[6]
  amount of inhibitor required to give 50% inhibition relative to the amount of digoxin which gave 50% inhibition: 333
[7]
  amount of inhibitor required to give 50% inhibition relative to the amount of digoxin which gave 50% inhibition: > 10^5
